# Reference: US11753397B2, “Cereblon binders for the degradation of ikaros” (C4 Therapeutics, Inc., priority 2018, dated 2023)
# System: NCIH929.1 cells
# Assay: Cell viability assay (CellTiter-Glo 2.0, ATP quantification)
# Type: cell-based
# Details: NCIH929.1 cell viability, CellTiter-Glo 2.0, 96 hr incubation, top concentration 1 μM
# How it was run: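 Read-out is CellTiter-Glo 2.0 luminescence (ATP), after 96 h compound exposure at 37 °C, with a day-0 plate giving the CT0 baseline. Duplicate 10-point half-log titration from 1 μM applied to 750 cells/well in RPMI, 10% FBS, 0.05 mM 2-mercaptoethanol.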
row,SMILES,GI50 [nM]
1,"Cc1cncc(N2CCC(C(=O)N3CCC(n4cc(CNc5cccc6c5C(=O)N(C5CCC(=O)NC5=O)C6=O)cn4)CC3)CC2)n1 (stereo not drawn) [Compound 122, 2-(2,6-dioxopiperidin-3-yl)-4-(((1-(1-(1-(6-methylpyrazin-2-yl)piperidine-4-carbonyl)piperidin-4-yl)-1H-pyrazol-4-yl)methyl)amino)isoindoline-1,3-dione]",< 1
2,"O=C1CCC(N2C(=O)c3cccc(NCc4cnn(C5CCN(C(=O)CC6CCN(C(=O)c7ccccc7)CC6)CC5)c4)c3C2=O)C(=O)N1 (stereo not drawn) [Compound 123, 4-(((1-(1-(2-(1-benzoylpiperidin-4-yl)acetyl)piperidin-4-yl)-1H-pyrazol-4-yl)methyl)amino)-2-(2,6-dioxopiperidin-3-yl)isoindoline-1,3-dione]",< 100
3,"O=C1CCC(N2C(=O)c3cccc(NCc4cnn(C5CCN(C(=O)Cc6ccc7c(c6Cl)OCCCO7)CC5)c4)c3C2=O)C(=O)N1 (stereo not drawn) [Compound 124, 4-(((1-(1-(2-(6-chloro-3,4-dihydro-2H-benzo[b][1,4]dioxepin-7-yl)acetyl)piperidin-4-yl)-1H-pyrazol-4-yl)methyl)amino)-2-(2,6-dioxopiperidin-3-yl)isoindoline-1,3-dione]",< 100
4,"Cn1nc(C2CC2)cc1CC(=O)N1CCC(n2cc(CNc3cccc4c3C(=O)N(C3CCC(=O)NC3=O)C4=O)cn2)CC1 (stereo not drawn) [Compound 125, 4-(((1-(1-(2-(3-cyclopropyl-1-methyl-1H-pyrazol-5-yl)acetyl)piperidin-4-yl)-1H-pyrazol-4-yl)methyl)amino)-2-(2,6-dioxopiperidin-3-yl)isoindoline-1,3-dione]",< 100
5,"O=C1CCC(N2C(=O)c3cccc(NCc4cnn(C5CCN(C(=O)CC6CCN(C(=O)C7CCC7)CC6)CC5)c4)c3C2=O)C(=O)N1 (stereo not drawn) [Compound 126, 4-(((1-(1-(2-(1-(cyclobutanecarbonyl)piperidin-4-yl)acetyl)piperidin-4-yl)-1H-pyrazol-4-yl)methyl)amino)-2-(2,6-dioxopiperidin-3-yl)isoindoline-1,3-dione]",< 100
6,"O=C1CCC(N2C(=O)c3cccc(NCc4cnn(C5CCN(CC6CCCCC6)CC5)c4)c3C2=O)C(=O)N1 (stereo not drawn) [Compound 127, 4-(((1-(1-(cyclohexylmethyl)piperidin-4-yl)-1H-pyrazol-4-yl)methyl)amino)-2-(2,6-dioxopiperidin-3-yl)isoindoline-1,3-dione]",< 100
7,"O=C1CCC(N2C(=O)c3cccc(NCc4cnn(C5CCN(CC6CCCC6)CC5)c4)c3C2=O)C(=O)N1 (stereo not drawn) [Compound 128, 4-(((1-(1-(cyclopentylmethyl)piperidin-4-yl)-1H-pyrazol-4 yl)methyl)amino)-2-(2,6-dioxopiperidin-3-yl)isoindoline-1,3-dione]",< 100
8,"O=C1CCC(N2C(=O)c3cccc(NCc4cnn(C5CCN(C6CCC6)CC5)c4)c3C2=O)C(=O)N1 (stereo not drawn) [Compound 129, 4-(((1-(1-cyclobutylpiperidin-4-yl)-1H-pyrazol-4-yl)methyl)amino)-2-(2,6-dioxopiperidine-3-yl)isoindoline-1,3-dione]",< 100
9,"O=C1CCC(N2C(=O)c3cccc(NCc4cnn(C5CCN(C6CCCC6)CC5)c4)c3C2=O)C(=O)N1 (stereo not drawn) [Compound 130, 4-(((1-(1-cyclopentylpiperidin-4-yl)-1H-pyrazol-4-yl)methyl)amino)-2-(2,6-dioxopiperidin-3-yl)isoindoline-1,3-dione]",< 100
10,"O=C1CCC(N2C(=O)c3cccc(NCc4cnn(C5CCN(CC6CCC6)CC5)c4)c3C2=O)C(=O)N1 (stereo not drawn) [Compound 131, 4-(((1-(1-(cyclobutylmethyl)piperidin-4-yl)-1H-pyrazol-4-yl)methyl)amino)-2-(2,6-dioxopiperidin-3-yl)isoindoline-1,3-dione]",< 100
11,"CC1(CN2CCC(n3cc(CNc4cccc5c4C(=O)N(C4CCC(=O)NC4=O)C5=O)cn3)CC2)CCCCC1 (stereo not drawn) [Compound 132, 2-(2,6-dioxopiperidin-3-yl)-4-(((1-(1-((1-methylcyclohexyl)methyl)piperidin-4-yl)-1H-pyrazol-4-yl)methyl)amino)isoindoline-1,3-dione]",< 100
12,"O=C1CCC(N2C(=O)c3cccc(NCc4cnn(C5CCN(C6CCCCC6)CC5)c4)c3C2=O)C(=O)N1 (stereo not drawn) [Compound 133, 4-(((1-(1-cyclohexylpiperidin-4-yl)-1H-pyrazol-4-yl)methyl)amino)-2-(2,6-dioxopiperidin-3-yl)isoindoline-1,3-dione]",< 100
13,"O=C1CCC(N2C(=O)c3cccc(NCc4cnn(C5CCN(C6CC6)CC5)c4)c3C2=O)C(=O)N1 (stereo not drawn) [Compound 134, 4-(((1-(1-cyclopropylpiperidin-4-yl)-1H-pyrazol-4-yl)methyl)amino)-2-(2,6-dioxopiperidin-3-yl)isoindoline-1,3-dione]",< 100
14,"O=C1CCC(N2C(=O)c3cccc(NCc4cnn(C5CCN(C6CC7(CCC7)C6)CC5)c4)c3C2=O)C(=O)N1 (stereo not drawn) [Compound 135, 2-(2,6-dioxopiperidin-3-yl)-4-(((1-(1-(spiro[3.3]heptan-2-yl)piperidin-4-yl)-1H-pyrazol-4-yl)methyl)amino)isoindoline-1,3-dione]",< 100
15,"CC1(CN2CCC(n3cc(CNc4cccc5c4C(=O)N(C4CCC(=O)NC4=O)C5=O)cn3)CC2)CC1 (stereo not drawn) [Compound 136, 2-(2,6-dioxopiperidin-3-yl)-4-(((1-(1-((1-methylcyclopropyl)methyl)piperidin-4-yl)-1H-pyrazol-4-yl)methyl)amino)isoindoline-1,3-dione]",< 1
16,"O=C1CCC(N2C(=O)c3cccc(NCc4cnn(C5CCN(CC6(C(F)(F)F)CC6)CC5)c4)c3C2=O)C(=O)N1 (stereo not drawn) [Compound 137, 2-(2,6-dioxopiperidin-3-yl)-4-(((1-(1-((1-(trifluoromethyl)cyclopropyl)methyl)piperidin-4-yl)-1H-pyrazol-4-yl)methyl)amino)isoindoline-1,3-dione]",< 100
17,"CC1(CN2CCC(n3cc(CNc4cccc5c4C(=O)N(C4CCC(=O)NC4=O)C5=O)cn3)CC2)CCCC1 (stereo not drawn) [Compound 138, 2-(2,6-dioxopiperidin-3-yl)-4-(((1-(1-((1-methylcyclopentyl)methyl)piperidin-4-yl)-1H-pyrazol-4-yl)methyl)amino)isoindoline-1,3-dione]",< 1
18,"CC1(CN2CCC(n3cc(CNc4cccc5c4C(=O)N(C4CCC(=O)NC4=O)C5=O)cn3)CC2)CCC1 (stereo not drawn) [Compound 139, 2-(2,6-Dioxo-piperidin-3-yl)-4-({1-[1-(1-methyl-cyclobutylmethyl)-piperidin-4-yl]-1H-pyrazol-4-ylmethyl}-amino)-isoindole-1,3-dione]",< 100
19,"O=C1CCC(N2C(=O)c3cccc(NCc4cnn(C5CCN(CC6(C(F)(F)F)CCC6)CC5)c4)c3C2=O)C(=O)N1 (stereo not drawn) [Compound 140, 2-(2,6-dioxopiperidin-3-yl)-4-(((1-(1-((1-(trifluoromethyl)cyclobutyl)methyl)piperidin-4-yl)-1H-pyrazol-4-yl)methyl)amino)isoindoline-1,3-dione]",< 100
20,"Cn1cc(CNc2cccc3c2C(=O)N(C2CCC(=O)NC2=O)C3=O)cn1 (stereo not drawn) [Compound 141, 2-(2,6-dioxopiperidin-3-yl)-4-(((1-methyl-1H-pyrazol-4-yl)methyl)amino)isoindoline-1,3-dione]",< 100
21,"CCn1cc(CNc2cccc3c2C(=O)N(C2CCC(=O)NC2=O)C3=O)cn1 (stereo not drawn) [Compound 142, 2-(2,6-dioxopiperidin-3-yl)-4-(((1-ethyl-1H-pyrazol-4-yl)methyl)amino)isoindoline-1,3-dione]",< 100
22,"CC(C)Cn1cc(CNc2cccc3c2C(=O)N(C2CCC(=O)NC2=O)C3=O)cn1 (stereo not drawn) [Compound 143, 2-(2,6-dioxopiperidin-3-yl)-4-(((1-isobutyl-1H-pyrazol-4-yl)methyl)amino)isoindoline-1,3-dione]",> 100
23,"CC(C)(C)n1cc(CNc2cccc3c2C(=O)N(C2CCC(=O)NC2=O)C3=O)cn1 (stereo not drawn) [Compound 144, 4-(((1-(tert-butyl)-1H-pyrazol-4-yl)methyl)amino)-2-(2,6-dioxopiperidin-3-yl)isoindoline-1,3-dione]",< 100
24,"O=C1CCC(N2C(=O)c3cccc(NCc4cnn(-c5ccccc5)c4)c3C2=O)C(=O)N1 (stereo not drawn) [Compound 145, 2-(2,6-dioxopiperidin-3-yl)-4-(((1-phenyl-1H-pyrazol-4-yl)methyl)amino)isoindoline-1,3-dione]",< 100
25,"O=C1CCC(N2C(=O)c3cccc(NCc4cnn(C5CCN(C(=O)OCc6ccccc6)CC5)c4)c3C2=O)C(=O)N1 (stereo not drawn) [Compound 146, benzyl 4-(4-(((2-(2,6-dioxopiperidin-3-yl)-1,3-dioxoisoindolin-4-yl)amino)methyl)-1H-pyrazol-1-yl)piperidine-1-carboxylate]",< 100
26,"CCOC(=O)N1CCC(n2cc(CNc3cccc4c3C(=O)N(C3CCC(=O)NC3=O)C4=O)cn2)CC1 (stereo not drawn) [Compound 147, ethyl 4-(4-(((2-(2,6-dioxopiperidin-3-yl)-1,3-dioxoisoindolin-4-yl)amino)methyl)-1H-pyrazol-1-yl)piperidine-1-carboxylate]",< 100
27,"O=C1CCC(N2C(=O)c3cccc(NCc4cnn(C5CCN(C(=O)OCC(Cl)(Cl)Cl)CC5)c4)c3C2=O)C(=O)N1 (stereo not drawn) [Compound 148, 2,2,2-trichloroethyl 4-(4-(((2-(2,6-dioxopiperidin-3-yl)-1,3-dioxoisoindolin-4-yl)amino)methyl)-1H-pyrazol-1-yl)piperidine-1-carboxylate]",< 100
28,"CC(C)(C)COC(=O)N1CCC(n2cc(CNc3cccc4c3C(=O)N(C3CCC(=O)NC3=O)C4=O)cn2)CC1 (stereo not drawn) [Compound 149, neopentyl 4-(4-(((2-(2,6-dioxopiperidin-3-yl)-1,3-dioxoisoindolin-4-yl)amino)methyl)-1H-pyrazol-1-yl)piperidine-1-carboxylate]",< 1
29,"O=C1CCC(N2C(=O)c3cccc(NCc4cnn(C5CCCC5)c4)c3C2=O)C(=O)N1 (stereo not drawn) [Compound 151, 4-[(1-cyclopentylpyrazol-4-yl)methylamino]-2-(2,6-dioxo-3-piperidyl)isoindoline-1,3-dione]",< 100
30,"CC(C)n1cc(CNc2cccc3c2C(=O)N(C2CCC(=O)NC2=O)C3=O)cn1 (stereo not drawn) [Compound 152, 2-(2,6-dioxo-3-piperidyl)-4-[(1-isopropylpyrazol-4-yl)methylamino]isoindoline-1,3-dione]",< 100
